Patent publication US20240002425A1, “NOVEL AMINOALKYL GLUCOSAMINIDE 4-PHOSPHATE DERIVATIVE” (DAIICHI SANKYO COMPANY, LIMITED, priority 2020, published 2024)

Experiments:
Assay type in all cases: in vivo, mouse
[1] = system: Japanese cedar pollen antigen (Cry j 1); assay: Immunostimulatory effect on Japanese cedar pollen antigen by sublingual administration (anti-Cry j 1 IgG or IgA); details: sublingual with Japanese cedar pollen antigen
Description: The compound described in Example 24 was used to study its immunostimulatory effect on a Japanese cedar pollen antigen by sublingual administration.
Allergen sensitization was performed by subcutaneously administering 50 μL of Japanese cedar pollen antigen extracts (allergen scratch extracts “Torii” Japanese cedar pollen, Torii Pharmaceutical Co., Ltd.) to the mouse tail root 3 and 1 weeks before the start of sublingual administration. Blood was collected 4 days after the second sensitization, and anti-Cry j 1 IgG was measured in accordance with the subsequent section. Mice were grouped such that their measured values were evenly distributed among the groups. Sublingual administration (sublingual allergen immunotherapy model) was started from 3 days thereafter.
The antigen used was a Japanese cedar pollen antigen (5000 JAU CEDARCURE®, Torii Pharmaceutical Co., Ltd.) dissolved in 100 μL of PBS. The compound of Example 24 was dissolved in injectable water (Otsuka Pharmaceutical Co., Ltd.) to prepare a 5 mg/mL solution. The antigen and the compound of Example 24 were mixed in equal amounts immediately before administration.
Each mouse was allowed to refrain from eating and drinking from 1 hour before sublingual administration. […]
25 μL of 10 μg/mL ImmunoPure Streptavidin (Thermo Fisher Scientific Inc., Cat No. 21125) was added to each well of 96 Well Micro Plate (Corning, Inc., Cat No. 3690), which was then left standing overnight at 4° C. […] The plate was left standing at room temperature for 10 minutes, and 30 μL of TMB Stop Solution was then added to each well, followed by the measurement of absorbance at 450 nm.
Positive serum was used as a standard specimen of serum, and anti-Cry j 1 IgG or IgA contained therein was set to 1000 units/mL. […] An evaluation specimen was diluted 1000-fold with an ELISA solution and measured, and the unit value of anti-Cry j 1 IgG or IgA in the evaluation specimen was determined using the calibration curve. […]

[2] = system: cervical lymph node immune cells; assay: Cry j 1-specific cell-mediated immunity assay (cervical lymph node cells); set-up: IFN-7 produced by Cry j 1 stimulation / IL-4 produced by Cry j 1 stimulation: unit not given here; details: cervical lymph node cells after sublingual administration with Japanese cedar pollen antigen
Description: Cervical lymph node was collected, then pooled for each group, and ground in PBS (1% BSA). The resultant was passed through a 70 μm strainer. […] Cells were recovered with RPMI/FBS/ps, and the number of cells was prepared to 2×5×10^6 cells/mL.

[3] = system: mast cell degranulation reaction mediated by anti-Cry j 1 IgE; assay: Suppression of mast cell degranulation by immune serum-derived IgG; details: IgG from serum of SLIT mice, 200 ng/mL Cry j 1 stimulation; vs No-SLIT and Japanese Cedar Pollen SLIT groups (FIG. 17)
Description: IgG was purified from 200 μL of serum of each mouse individual of the allergen immunotherapy model in accordance with the protocol of Protein G HP spin trap (Cytiva, 28-9031-34). The solvent in the purified IgG was replaced with 50 μL of Tyrode's solution using Vivaspin 500, 10 kDa MWCO Polyethersulfone (Cytiva, 28-9322-25). Cry j 1 (2×10×200 ng/mL, 1.5 μL, Tyrode's solution) was added to the purified IgG (13.5 μL, Tyrode's solution), and the mixture was left standing at room temperature for 1 hour in the dark. The mast cells sensitized with anti-Cry j 1 IgE were treated with 10 μL of this specimen as a test substance, and the amount of the mast cell degranulation was measured (final concentration: 200 ng/mL, Cry j 1 stimulation).

Structure (SMILES): CCCCCCCCCCC[C@H](CC(=O)N[C@@H](CO[C@@H]1O[C@H](CO[C@]2(C(=O)O)C[C@@H](O)[C@@H](O)[C@@H]([C@H](O)CO)O2)[C@@H](OP(=O)(O)O)[C@H](OC(=O)C[C@@H](CCCCCCCCCCC)OC(=O)CCCCCCCCC)[C@H]1NC(=O)C[C@@H](CCCCCCCCCCC)OC(=O)CCCCCCCCC)CC(=O)O)OC(=O)CCCCCCCCC.CNC[C@H](O)[C@@H](O)[C@H](O)[C@H](O)CO.CNC[C@H](O)[C@@H](O)[C@H](O)[C@H](O)CO.CNC[C@H](O)[C@@H](O)[C@H](O)[C@H](O)CO.CNC[C@H](O)[C@@H](O)[C@H](O)[C@H](O)CO [Example 24, Tetrameglumine (3R)-3-{[(3R)-3-(decanoyloxy)tetradecanoyl]amino}-4-({3-O-[(3R)-3-(decanoyloxy)tetradecanoyl]-2-{[(3R)-3-(decanoyloxy)tetradecanoyl]amino}-2-deoxy-6-O-(3-deoxy-α-D-manno-oct-2-ulopyranonosyl)-4-O-phosphono-β-D-glucopyranosyl}oxy)butanoate]
- anti-Cry j 1 IgA in nasal wash ([1]; 5 weeks (FIG. 11)): induced at a high level
- anti-Cry j 1 IgG in serum ([1]; vs No-SLIT and Japanese Cedar Pollen SLIT groups (FIG. 9)): induced at a higher level
- anti-Cry j 1 IgA in serum ([1]; vs No-SLIT and Japanese Cedar Pollen SLIT groups (FIG. 10)): induced at a higher level
- IL-10 produced by Cry j 1 stimulation ([2]; 44 hours culture (FIG. 12)): strongly induced
- IFN-7 produced by Cry j 1 stimulation ([2]; 44 hours culture (FIG. 13)): ≤ 9.77
- IL-4 produced by Cry j 1 stimulation ([2]; 44 hours culture (FIG. 14)): ≤ 9.77
- mast cell degranulation with IgG purified from mouse serum [3]: suppressed
